Literature values, collected in US20200281958A1, “STABLE FORMULATIONS FOR THE ORAL ADMINISTRATION OF AMPHOTERICIN B AND RELATED METHODS” (priority 2015, published 2020).

Experiments:
[1] = crystalline
[2] = test system: monocytic cell lines and primary macrophages/monocytes
[3] = test system: latently infected T cell lines

For `C[C@@H]1[C@H](O)[C@@H](C)/C=C/C=C/C=C/C=C/C=C/C=C/C=C/[C@H](O[C@@H]2O[C@H](C)[C@@H](O)[C@H](N)[C@@H]2O)C[C@@H]2O[C@](O)(C[C@@H](O)C[C@@H](O)[C@H](O)CC[C@@H](O)C[C@@H](O)CC(=O)O[C@H]1C)C[C@H](O)[C@H]2C(=O)O` (relative stereo) [amphotericin B, [1R-(1R*,3S*,5R*,6R*,9R*,11R*,15S*,16R*,17R*,18S*,19E,21E,23E,25E, 27E,29E,31 E,33R*,35S*,36R*,37S)]-33-[(3-amino-3,6-dideoxy-β-D-mannopyranosyl)oxy] 1,3,5,6,9,11, 17,37-octahydroxy-15,16,18-trimethyl-13-oxo-14,39-dioxabicyclo-[33.3.1] nonatriaconta-19,21, 23,25,27,29,3 1-heptaene-36-carboxylic acid], the solubility in water [1] is given as “insoluble in water”, the “reactivation of HIV-1 replication” value [2] is given as “reactivate HIV-1 replication” and the “direct reactivation of latently infected T cell lines” value ([3]; T cell lines alone) is given as “did not directly reactivate”. For the same compound, the “HIV-1 reactivation in T cell lines” value ([3]; co-culture with primary macrophages) was “partial HIV-1 reactivation”.
